Measurements: patent publication US10076519B2 (CYTOKINETICS, INC., priority 2010, dated 2018)

Tested on: rabbit skeletal myofibrils (fast skeletal myofibrils)
Assay: Activation of fast skeletal myofibrils (PUMA assay, PK/LDH-coupled ATPase at pCa25)
Assay type: biochemical
Conditions: AC1.4 determined according to the procedure of Example 39; reported as class symbols
Experimental: Preparation of Fast Skeletal Myofibrils.
Rabbit skeletal myofibrils were prepared based upon the method of Herrmann et al. (Biochem. 32(28):7255-7263(1993). Myofibrils were prepared from rabbit psoas muscle purchased from Pel-Freez Biologicals (Arkansas) within 2 days of ordering, stored on ice. Minced muscle was homogenized in 10 volumes of ice-cold “standard” buffer (50 mM Tris, pH 7.4, 0.1M potassium acetate, 5 mM KCl, 2 mM DTT, 0.2 mM PMSF, 10 μM leupeptin, 5 μM pepstatin, and 0.5 mM sodium azide) containing 5 mM EDTA and 0.5% Triton X-100 using an Omni-Macro homogenizer. Myofibrils were recovered by low speed centrifugation (3000 rpm for 10 minutes) and washed 2 times in the Triton X-100 containing buffer to ensure removal of cellular membrane. Following the Triton washes, myofibrils were washed 3 times in “standard” buffer containing 2 mM magnesium acetate. A final wash in assay buffer (12 mM PIPES, pH 6.8, 60 mM KCl, 1 mM DTT) was performed and brought to 10% sucrose for flash freezing in liquid nitrogen and storage at −80° C.
Activation of Fast Skeletal Myofibrils.
Fast fiber activators were identified by measuring the enzymatic activity of muscle myofibril preparations using the proprietary PUMA™ (see, e.g., U.S. Pat. Nos. 6,410,254, 6,743,599, 7,202,051, and 7,378,254) assay system. Myofibril preparations consisted of rabbit skeletal muscle (approximately 90% fast fibers) that had been mechanically homogenized and washed with a detergent (triton X-100) to remove cellular membranes. This preparation retained all of the sarcomeric components in a native conformation and the enzymatic activity was still regulated by calcium. Compounds were tested using a myofibril suspension and a level of calcium sufficient to increase enzymatic activity of the myofibrils to 25% of their maximal rate (termed pCa25). Enzymatic activity was tracked via a pyruvate kinase and lactate dehydrogenase-coupled enzyme system. This assay regenerates myosin-produced ADP into ATP by oxidizing NADH, producing an absorbance change at 340 nm. The buffering system was 12 mM Pipes, 2 mM MgCl2, 1 mM DTT at pH 6.8 (PM12 buffer).
Using procedures similar to those described herein, utilizing reagents and intermediates commercially available (e.g., Sigma-Aldrich, St. Louis, Mo.) or readily synthesized by one of skill in the art, the compounds in Table 2 were synthesized, characterized and tested. AC1.4 values were determined according to the procedure described in Example 39, and the reported median AC1.4 values are as follows: A=<1 uM; B=1-10 uM; C=10-20 uM; D=>20 uM.

SMILES | Mean AC1.4
CC(C)(O)c1cccc(C(C)(C)CNc2ccc(-c3ccc4[nH]nc(N)c4c3)nn2)c1 | C (C=10-20 uM)
CC(C)(CNc1ccc(-c2ccc3[nH]nc(N)c3c2)nn1)c1ccc(CCO)cc1 | B (B=1-10 uM)
CC(C)(O)c1ccc(C(C)(C)CNc2ccc(-c3ccc4[nH]nc(N)c4c3)nn2)cc1 | D (D=>20 uM)
CC(C)(CNc1ccc(-c2ccc3nc(N)[nH]c(=O)c3c2)nn1)c1ccc(F)cc1 | A (A=<1 uM)
CC(C)(CNc1ccc(-c2cc(=O)[nH]c(N)n2)nn1)c1ccc(F)cc1 | B (B=1-10 uM)
CC(C)(CNc1ccc(-c2ccc3[nH]nc(N)c3c2)nn1)c1cccc(O)c1 | B (B=1-10 uM)
CC(C)(CNc1ccc(-c2ccc3[nH]nc(N)c3c2)nn1)c1cccc(C#N)c1 | A (A=<1 uM)
CCCC(CNc1ccc(-c2cccc(C(N)=O)c2)nn1)c1ccccc1Cl (stereo not drawn) | B (B=1-10 uM)
CC(CNc1ccc(-c2cccc(C(N)=O)c2)nn1)N1CCCCC1=O (stereo not drawn) | D (D=>20 uM)
CC(CNc1ccc(-c2cccc(C(N)=O)c2)nn1)N1CCCC1=O (stereo not drawn) | D (D=>20 uM)
N#Cc1cccc(-c2ccc(NCCc3ccc(Cl)cc3Cl)nn2)c1 | D (D=>20 uM)
NC(=O)c1cccc(-c2ccc(N[C@@H]3C[C@H]3c3ccccc3)nn2)c1 | D (D=>20 uM)
CC(C)(C)OC(=O)N(CC(C)(C)c1ncccc1F)c1ccc(-c2cccc(C(N)=O)c2)nn1 | D (D=>20 uM)
CC(C)(C)OC(=O)N(CC(C)(C)c1ccc(F)cc1)c1ccc(-c2cc(C(N)=O)ccc2F)nn1 | D (D=>20 uM)
CC(C)(C)OC(=O)N(CC(C)(C)c1ccc(F)cc1)c1ccc(-c2cccc(C(N)=O)c2)nn1 | D (D=>20 uM)
CC(C)(CNc1ccc(-c2ccc3[nH]nc(N)c3c2)nn1)c1ccc(C#N)cc1 | A (A=<1 uM)
CC(C)(CNc1ccc(C(=O)N2CCN(C(N)=O)CC2)nn1)c1ccc(F)cc1 | D (D=>20 uM)
CC(C)(CNc1ccc(-c2ccc3[nH]c(=O)[nH]c3c2)nn1)c1ccccc1CO | B (B=1-10 uM)

SMILES | Mean AC1.4
CC(C)(CNc1ccc(-c2ccc3[nH]c(=O)[nH]c3c2)nn1)c1ccccc1F | A (A=<1 uM)
CC(C)(CNc1ccc(-c2ccc3oc(=O)[nH]c3c2)nn1)c1ccc(F)cc1 | B (B=1-10 uM)
CC(C)(Cc1ccc(F)cc1)Nc1ccc(-c2ccc3[nH]c(=O)[nH]c3c2)nn1 | D (D=>20 uM)
CC(C)(CNc1ccc(-c2ccc3[nH]c(=O)[nH]c3c2)nn1)c1ccccc1 | A (A=<1 uM)
CC(C)(C)CNc1ccc(-c2ccc3[nH]c(=O)[nH]c3c2)nn1 | D (D=>20 uM)
CC(C)(CNc1ccc(-c2ccc3[nH]c(=O)oc3c2)nn1)c1ccc(F)cc1 | A (A=<1 uM)
CC(C)(CNc1ccc(-c2ccc3nc[nH]c(=O)c3c2)nn1)c1ccc(F)cc1 | B (B=1-10 uM)
CC(C)(C)OC(=O)N(CC(C)(C)c1ccc(F)cc1)c1ccc(-c2cc(=O)[nH]c(N)n2)nn1 | B (B=1-10 uM)
CC(C)(CNc1ccc(-c2ccc3[nH]nc(N)c3c2)nn1)c1ccccc1CO | B (B=1-10 uM)
CN(C)CCc1cccc(C(C)(C)CNc2ccc(-c3ccc4[nH]nc(N)c4c3)nn2)c1 | D (D=>20 uM)
CC(C)(CNc1ccc(-c2ccc3[nH]nc(N)c3c2)nn1)c1cccc(CO)c1 | B (B=1-10 uM)
CC(C)(CNc1ccc(-c2ccc3[nH]nc(N)c3c2)nn1)c1ccc(CO)cc1 | D (D=>20 uM)
CC1(C)CC1(CNc1ccc(-c2ccc3[nH]nc(N)c3c2)nn1)c1ccccc1 (stereo not drawn) | A (A=<1 uM)
CC(C)(CNc1ccc(CO)nn1)c1ccc(F)cc1 | D (D=>20 uM)
CN(C)Cc1cccc(C(C)(C)CNc2ccc(-c3ccc4[nH]nc(N)c4c3)nn2)c1 | D (D=>20 uM)
CN(C)Cc1ccc(C(C)(C)CNc2ccc(-c3ccc4[nH]nc(N)c4c3)nn2)cc1 | D (D=>20 uM)
CC(C)(C)OC(=O)N1CCN(C(=O)c2ccc(NCC(C)(C)c3ccc(F)cc3)nn2)C(CO)C1 (stereo not drawn) | D (D=>20 uM)

More lines, now with the values ahead:

Mean AC1.4 | SMILES
B (B=1-10 uM) | NC(=O)c1cccc(-c2ccc(NCC3(c4ncccc4F)CCC3)nn2)c1F
D (D=>20 uM) | CC(C)(CNc1ccc(-c2ccc3[nH]nc(N)c3c2)nn1)c1cccc(C(N)=O)c1
B (B=1-10 uM) | NC(=O)c1cccc(-c2ccc(NCC3CCCc4ccccc43)nn2)c1 (stereo not drawn)
B (B=1-10 uM) | NC(=O)c1cccc(-c2ccc(NCCc3ccccc3Cl)nn2)c1
B (B=1-10 uM) | CC(CNc1ccc(-c2cccc(C(N)=O)c2)nn1)c1ccccc1F (stereo not drawn)
C (C=10-20 uM) | NC(=O)c1cccc(-c2ccc(NCCc3ccc(Cl)cc3Cl)nn2)c1
D (D=>20 uM) | NC(=O)c1cccc(-c2ccc(NCCc3ccc(F)cc3F)nn2)c1
B (B=1-10 uM) | NC(=O)c1cccc(-c2ccc(NCCc3cccc(Cl)c3)nn2)c1
C (C=10-20 uM) | NC(=O)c1cccc(-c2ccc(NCCc3ccc(Cl)c(Cl)c3)nn2)c1
C (C=10-20 uM) | NC(=O)c1cccc(-c2ccc(NCCc3ccc(F)c(F)c3)nn2)c1
D (D=>20 uM) | NC(=O)c1cccc(-c2ccc(NCCc3cc(F)cc(F)c3)nn2)c1
D (D=>20 uM) | NC(=O)c1cccc(-c2ccc(NCCc3ccc(Cl)cc3)nn2)c1
D (D=>20 uM) | NC(=O)c1cccc(-c2ccc(NCCc3ccc(F)cc3)nn2)c1
D (D=>20 uM) | COc1ccc(CCNc2ccc(-c3cccc(C(N)=O)c3)nn2)cc1
C (C=10-20 uM) | Cc1ccc(CCNc2ccc(-c3cccc(C(N)=O)c3)nn2)cc1
D (D=>20 uM) | NC(=O)c1cccc(-c2ccc(NCC(CC3OCCO3)c3ccccc3F)nn2)c1 (stereo not drawn)

Mean AC1.4 | SMILES
B (B=1-10 uM) | C[C@@H](CNc1ccc(-c2cccc(C(N)=O)c2)nn1)c1ccc(F)cc1
B (B=1-10 uM) | C[C@H](CNc1ccc(-c2cccc(C(N)=O)c2)nn1)c1ccc(F)cc1
A (A=<1 uM) | NC(=O)c1cccc(-c2ccc(NCC3(c4ncccc4F)CCC3)nn2)c1
B (B=1-10 uM) | NC(=O)c1cccc(-c2ccc(NCC3(c4ccc(F)cn4)CCC3)nn2)c1
B (B=1-10 uM) | NC(=O)c1ccc(-c2ccc(NCC3(c4ncccc4F)CCC3)nn2)c(F)c1
D (D=>20 uM) | CC(C)(CNc1ccc(-c2ccc3[nH]nc(N)c3c2)nn1)c1ccc(C(N)=O)cc1
B (B=1-10 uM) | NC(=O)c1ccc(-c2ccc(NCC3(c4ncccc4F)CCC3)nn2)cc1
A (A=<1 uM) | NC(=O)c1ccc(F)c(-c2ccc(NCC3(c4ccccn4)CCC3)nn2)c1
A (A=<1 uM) | NC(=O)c1ccc(F)c(-c2ccc(NCC3(c4ncccc4F)CCC3)nn2)c1
D (D=>20 uM) | NC(=O)c1ccc(F)c(-c2ccc(NCC3(c4cccc(O)n4)CCC3)nn2)c1
A (A=<1 uM) | COc1cccc(C2(CNc3ccc(-c4cc(C(N)=O)ccc4F)nn3)CCC2)n1
B (B=1-10 uM) | O=c1ncc(-c2ccc(NCC3(c4ccc(F)cc4)CCC3)nn2)c[nH]1
A (A=<1 uM) | O=c1[nH]c2ccc(-c3ccc(NCC4(c5ccc(F)cc5)CC4)nn3)cc2[nH]1
A (A=<1 uM) | Nc1n[nH]c2ccc(-c3ccc(NCC4(c5ccccc5)CCC4)nn3)cc12
A (A=<1 uM) | Nc1n[nH]c2ccc(-c3ccc(NCC4(c5ccccc5)CC4)nn3)cc12
